Patent publication US20100324124A1, “Compositions and methods relating to DNA-based particles” (Massachusetts Institute of Technology, priority 2009, published 2010)

System: B16F10 melanoma tumors
Test: In vivo treatment of established B16F10 melanoma tumors, single intratumoral injection
Conditions: 100 μg DOX, C57B1/6 mice
Protocol: FIG. 7 illustrates in vivo tumor regression mediated by doxobucin-loaded nanoparticles. 5×10^6 Gaussia-luciferase-expressing B16F10 melanoma cells were subcutaneously injected into left flank of C57B1/6 mice. Tumors were allowed to establish and grow to ˜0.5 cm in diameter, and mice were divided randomly into groups of 8 per condition: group 1, no treatment (PBS); group 2, treated with free doxorubicin (100 μg DOX); group 3, treated with doxorubicin-imbedded liposome (100 μg DOX); and group 4, treated with doxorubicin-imbedded nucleic acid nanoparticle (100 μg DOX). Treatments were administered by intratumoral injection in 250 μl volumes. Tumors were measured every day with calipers in two dimensions. Tumor growth curves are plotted as the mean tumor area±standard deviation. Shown at bottom left is bioluminescence imaging of a mouse with an untreated tumor (left) and a mouse that received an injection of doxorubicin-imbedded nucleic acid nanoparticles (right). Animals were sacrificed after the last measurement and the tumors were excised and fixed for histology section. […]

COc1cccc2c1C(=O)c1c(O)c3c(c(O)c1C2=O)C[C@@](O)(C(=O)CO)C[C@@H]3O[C@H]1C[C@H](N)[C@H](O)[C@H](C)O1 [free doxorubicin, Doxorubicin]
effect on tumor growth relative to saline-injected control animals: no effect on tumor growth
